Measured values taken from ChEMBL document CHEMBL3244132, “Semisynthetic aminoglycoside antibacterials. 6. Synthesis of sisomicin, Antibiotic G-52, and novel 6'-substituted analogues of sisomicin from aminoglycoside 66-40C” (J Med Chem, 1978).
The source made the active and inactive calls.

Assays:
Type in all cases: functional
[1] = test system: Streptococcus pyogenes; test: Antimicrobial activity against Streptococcus pyogenes 27 by tube dilution method
[2] = test system: Escherichia coli; test: Antimicrobial activity against Escherichia coli LA290R55 carrying ANT(2'') by tube dilution method
[3] = test system: Trichomonas vaginalis; test: Antiprotozoal activity against Trichomonas vaginalis after 48 hrs
[4] = test system: Pseudomonas aeruginosa; test: Antimicrobial activity against Pseudomonas aeruginosa Stone 130 carrying AAC(3) by tube dilution method
[5] = test system: Providencia rettgeri; test: Antimicrobial activity against Providencia rettgeri Membel by tube dilution method
[6] = test system: Proteus mirabilis; test: Antimicrobial activity against Proteus mirabilis Harding by tube dilution method
[7] = test system: Klebsiella pneumoniae; test: Antimicrobial activity against Klebsiella pneumoniae Georgetown 3694 carrying APH(2'') by tube dilution method
[8] = test system: Pseudomonas aeruginosa; test: Antimicrobial activity against Pseudomonas aeruginosa St. M. 1395 by tube dilution method
[9] = test system: Providencia; test: Antimicrobial activity against Providencia 164 carrying AAC(2')-I by tube dilution method
[10] = test system: Streptococcus pyogenes; test: Antimicrobial activity against Streptococcus pyogenes Group A Cruz by tube dilution method
[11] = test system: Klebsiella pneumoniae; test: Antimicrobial activity against Klebsiella pneumoniae Adler 17 carrying APH(3')-I by tube dilution method
[12] = test system: Escherichia coli; test: Antimicrobial activity against Escherichia coli JR88 carrying AAC(3) by tube dilution method
[13] = test system: Escherichia coli; test: Antimicrobial activity against Escherichia coli HL97/W677 carrying AAC(6') by tube dilution method
[14] = test system: Pseudomonas aeruginosa; test: Antimicrobial activity against Pseudomonas aeruginosa St. M. 762 by tube dilution method
[15] = test system: Salmonella typhimurium; test: Antimicrobial activity against Salmonella typhimurium Gr. B. by tube dilution method; conditions: Salmonella enterica subsp. enterica serovar Typhimurium
[16] = test system: Staphylococcus aureus; test: Antimicrobial activity against Staphylococcus aureus 209 P by tube dilution method
[17] = test system: Staphylococcus aureus; test: Antimicrobial activity against Staphylococcus aureus Wood by tube dilution method
[18] = test system: Pseudomonas aeruginosa; test: Antimicrobial activity against Pseudomonas aeruginosa GN 315 carrying AAC(6') by tube dilution method
[19] = test system: Staphylococcus aureus; test: Antimicrobial activity against Staphylococcus aureus Ziegler by tube dilution method
[20] = test system: Histomonas meleagridis; test: Antiprotozoal activity against Histomonas meleagridis
[21] = test system: Entamoeba histolytica; test: Antiprotozoal activity against Entamoeba histolytica JH
[22] = test system: Escherichia coli; test: Antimicrobial activity against Escherichia coli Baker 2 carrying APH(3')-I by tube dilution method
[23] = test system: Providencia rettgeri; test: Antimicrobial activity against Providencia rettgeri Anderson by tube dilution method
[24] = test system: Escherichia coli; test: Antimicrobial activity against Escherichia coli ATCC 10536 by tube dilution method
[25] = test system: Streptococcus pyogenes; test: Antimicrobial activity against Streptococcus pyogenes C by tube dilution method
[26] = test system: Serratia marcescens; test: Antimicrobial activity against Serratia marcescens Dalton by tube dilution method
[27] = test system: Staphylococcus aureus; test: Antimicrobial activity against Staphylococcus aureus 59N by tube dilution method
[28] = test system: Streptococcus pyogenes; test: Antimicrobial activity against Streptococcus pyogenes Alvarez by tube dilution method
[29] = test system: Bacillus subtilis; test: Antimicrobial activity against Bacillus subtilis ATCC 6633 by tube dilution method

Measured: Activity

CN[C@@H]1[C@@H](O)[C@@H](O[C@@H]2[C@@H](O)[C@H](O[C@H]3OC(CNOC)=CC[C@H]3N)[C@@H](N)C[C@H]2N)OC[C@]1(C)O
inactive: all assays above

CN[C@@H]1[C@@H](O)[C@@H](O[C@@H]2[C@@H](O)[C@H](O[C@H]3O[C@H](C(C)N)[C@@H](O)[C@H](O)[C@H]3N)[C@@H](N)C[C@H]2N)OC[C@]1(C)O (some centres not stated)
inactive: [3] | [20] | [21]

CN[C@@H]1[C@@H](O)[C@@H](O[C@@H]2[C@@H](O)[C@H](O[C@H]3OC(/C=N/N4CCOCC4)=CC[C@H]3N)[C@@H](N)C[C@H]2N)OC[C@]1(C)O
inactive: all assays above

CN[C@@H]1[C@@H](O)[C@@H](O[C@@H]2[C@@H](O)[C@H](O[C@H]3OC(C(C)N)CC[C@H]3N)[C@@H](N)C[C@H]2N)OC[C@]1(C)O (single isomer, unassigned)
inactive: [3] | [20] | [21]

CN[C@@H]1[C@@H](O)[C@@H](O[C@@H]2[C@@H](O)[C@H](O[C@H]3OC(/C=N\O)=CC[C@H]3N)[C@@H](N)C[C@H]2N)OC[C@]1(C)O
inactive: all assays above

CN[C@@H]1[C@@H](O)[C@@H](O[C@@H]2[C@@H](O)[C@H](O[C@H]3OC(/C=N\N)=CC[C@H]3N)[C@@H](N)C[C@H]2N)OC[C@]1(C)O
inactive: all assays above

CN[C@@H]1[C@@H](O)[C@@H](O[C@@H]2[C@@H](O)[C@H](O[C@H]3OC(/C=N\OC)=CC[C@H]3N)[C@@H](N)C[C@H]2N)OC[C@]1(C)O
inactive: all assays above

CN[C@@H]1[C@@H](O)[C@@H](O[C@@H]2[C@@H](O)[C@H](O[C@H]3O[C@@H](CN)CC[C@H]3N)[C@@H](N)C[C@H]2N)OC[C@]1(C)O
inactive: [3] | [20] | [21]

CN[C@@H]1[C@@H](O)[C@@H](O[C@@H]2[C@@H](O)[C@H](O[C@H]3O[C@H](CN)[C@@H](O)[C@H](O)[C@H]3N)[C@@H](N)C[C@H]2N)OC[C@]1(C)O
inactive: [3] | [20] | [21]
